Results reported in US20190336555A1, “SYNERGISTIC DIETARY SUPPLEMENT COMPOSITIONS FOR IMPROVING BRAIN HEALTH” (LAILA NUTRACEUTICALS, priority 2016, published 2019).
Counter-ions that a name gives are not always drawn.

Tested on: scopolamine induced memory impairment in Sprague Dawley rats
Assay: Scopolamine induced memory impairment model, Morris Water Maze
Format: in vivo
Conditions: oral, 4 days; LN16026F3 100 mg/kg, Donepezil 10 mg/kg; vs Scopolamine group
Method: Twenty four healthy male Sprague Dawley rats were randomized in to four groups. Animals of groups 1 and 2 were treated daily with vehicle (0.5% sodium CMC in water); group 3 with LN16026F3 (100 mg/kg) and group 4 with Donepezil Hydrochloride Monohydrate (10 mg/kg). Dementia was induced by injecting Scopolamine Hydrobromide (0.2 mg/kg) subcutaneously to G2, G3 & G4 groups. G1 group received only 1 mL/kg of normal saline (0.9% w/v sodium chloride) via subcutaneous route.
The experiment consists of 4 days of acquisition trials and one probe trial on day 5 i.e. the day after the completion of acquisition trails. Rats were allowed to swim for 120 seconds of 4 trials per day during acquisition trial in water maze to find the hidden platform. Each rat received 4 days of acquisition trials and one probe trial of 180 seconds on day 5. The movement of the animals was tracked by the SMART video tracking system. Memory retention was assessed on day 5 in which each animal received a single 180 seconds probe trial without platform in the pool. Dopamine levels were measured in tissue from hippocampal region of the brain using Elisa kit.

In the case of `COc1cc2c(cc1OC)C(=O)C(CC1CCN(Cc3ccccc3)CC1)C2` (stereo not shown) [Donepezil, Donepezil Hydrochloride Monohydrate], the “Target latency, Acquisition Trial” value is reported as “reduction in target latency”.
